Like-named read-outs stand apart in the source and are kept apart here.

Data set [1] is described as follows: Transepithelial transport of clorsulon across MDCKII parental cell monolayers. Particulars: dog, MDCK, MDCKII parental cells, clorsulon 10 μM, with or without ivermectin 10 μM, abamectin 2.5 μM, Ko143 1 μM, mean ± SD. It counts as in vitro ADME, Canine.
Data set [2] has as its system ovine ABCG2. As to the kind of experiment: in vitro. Particulars: sheep.
Method: (§5) This study employed Madin-Darby Canine Kidney (MDCKII) cells that had been previously transduced with ovine ABCG2. […] Briefly, cells were grown in DMEM (Dulbecco’s modified Eagle’s medium) enriched with glutamax (Life Technologies, Inc., Rockville, MD, United States) and supplemented with penicillin (50 units/mL), streptomycin (50 μg/mL), and 10% (v/v) fetal calf serum (MP Biomedicals, Solon, OH, United States) at a temperature of 37°C and 5% of CO2. Every 3 to 4 days, cells were trypsinized for subculturing.
(§6) Transcellular transport experiments using ovine ABCG2-transduced cells were conducted following the method previously described ([33]). Cells were seeded onto microporous polycarbonate membrane filters (3.0 μm pore size, 24 mm diameter; Transwell 3414; Costar, Corning, NY) at a density of 1.0 × 10^6 per well. The tightness of the monolayer was assessed by measuring its transcellular resistance using Millicell ERS (Millipore Burlington, MA).
(§7) Two hours before the beginning, preincubation was carried out replacing medium in both compartments with 2 mL of transport medium [Hanks’ balanced salt solution supplemented with HEPES (25 mM)] with or without the macrocyclic lactones (10 μM ivermectin and 2.5 μM abamectin). The experiment began with the replacement of the medium in either the apical or basal compartment with transport medium containing clorsulon (10 μM), with or without the same concentration of macrocyclic lactones. Aliquots of 100 μL at 1, 2 and 3 h in the opposite compartment were taken, this volume being replaced with fresh medium. At 4 h, 600 μL aliquots were taken in both compartments. Until analysis by high-performance liquid chromatography (HPLC), samples were stored at −20°C. After concluding the experiment, the confluence of the monolayer was evaluated by means of the Lucifer Yellow permeability assay ([34]). Transport proficiency of these cells was consistently verified through the evaluation of a typical ABCG2 substrate, danofloxacin ([25]).
(§8) The apparent permeability coefficients (Papp) across MDCKII parent and MDCKII oABCG2 cells monolayers in both apical to basal (A-B) (Papp A-B) and basal to apical (B-A) (Papp B-A) directions were calculated using following equation: Papp = (ΔQ/Δt)*(1/A*Co), where ΔQ/Δt is the rate of corresponding clorsulon appearing in the receiver chamber, which was obtained as the slope of the regression line on the transport time profile of clorsulon across the cell monolayers (from 0 to 4 h); Co is the initial concentration of drug; A is the cell monolayer surface area (4.67 cm^2). The efflux ratio is the Papp B-A/Papp A-B quotient.
The test system of another data set is murine ABCG2. On the set-up: method as in PMID 37078871. Particulars: murine ABCG2 transduced cell line; cited from earlier work.
Details of data set [3]: method as in earlier work. Particulars: cattle, s.c. 2 mg/kg clorsulon; cited from earlier work.
The test system of data set [4] is ovine ABCG2.
Method: as §5, §6, §7, §8
Data set [5] is described as follows: Plasma pharmacokinetics of clorsulon in lactating Assaf sheep. It counts as in vivo. As to conditions: female. How it is done: (§1) Studies with sheep were carried out on the Experimental Farm of the University of León, following institutional guidelines in accordance with European legislation (2010/63/EU). Procedures were also approved by the Animal Care and Use Committee of the University of León ULE-008-2019 (25/09/2019). Eighteen lactating sheep (3–4 months in lactation) of between 77–83 kg were used. Animals were previously dewormed and they had ad libitum access to drinking water. Sheep were randomly distributed in three experimental groups. All received a subcutaneous (s.c.) injection of clorsulon at 2 mg/kg (dissolved in DMSO, 80 mg/mL); one group coadministrated with another s.c. injection of ivermectin at 0.2 mg/kg (Ivomec® 1%, Merial, France) and another group with another s.c. injection of abamectin at 0.2 mg/kg (dissolved in DMSO, 8 mg/mL). Blood samples were taken from the jugular vein, while milk samples were obtained after completing milking of the gland before each treatment and at intervals of 1, 2, 4, 6, 8, 10, 12, 24, 30, 48, 72, 96, 120 and 168 h thereafter. Plasma was separated by centrifuging at 1200 g 15 min. Samples were stored at −20°C until analyzed.
(§2) Samples were analyzed by HPLC under conditions which have been previously described ([31]). Briefly, the chromatographic system used included a Waters 2695 separation module and a Waters 2998 UV photodiode array detector. Separation was performed on a reversed-phase column ([…], […], Torrance, CA, United States). The mobile phase consisted of potassium phosphate 0.01 M (pH 7): acetonitrile (75:25). The flow rate was set at 1.20 mL/min, with UV absorbance measured at 225 nm, and the column temperature maintained at 35°C.
(§3) In vitro samples were injected directly into the HPLC system. In vivo samples, milk and plasma, were extracted following a formerly described method ([31]) with minor modifications. For milk and plasma samples, 10 μL of albendazole-2-aminosulfone (6.25 μg/mL) as internal standard and 200 μL of ethyl acetate were added to each 100 μL. Then, the mixture was vortexed horizontally for 1 min and centrifuged at 8000 g for 10 min at 4°C. The resulting supernatant was collected and subjected to evaporation under N2 at 30°C until dryness. To the evaporated samples, 500 μL of hexane and 300 μL of acetonitrile was added, the mixture was again vortexed horizontally for 1 min and centrifuged at 3000 g for 10 min at 4°C. Hexane was removed and the rest was evaporated to dryness under nitrogen stream. After being resuspended in 100 μL of cold methanol, samples were injected into the HPLC system.
(§4) Plasma and milk concentrations for each animal were analyzed using PK solution 2.0 computer program (Summit Research Services, Ashland, OH) to calculated pharmacokinetic parameters as previously described ([27]).

Data set [6] can be described thus: Milk pharmacokinetics of clorsulon in lactating Assaf sheep. Particulars: clorsulon 2 mg/kg s.c., alone or with ivermectin or abamectin 0.2 mg/kg s.c., mean ± SD, n = 6. Type of data set: in vivo. How it is done:
as §1, §2, §3, §4

The next data set has as its system human ABCG2. On the set-up: method as in PMID 37078871. Particulars: human ABCG2 transduced cell line; cited from earlier work.
In data set [7] the test system is ovine ABCG2. As to conditions: at 25 μM in ovine ABCG2-transduced cells; cited from earlier work.
Setting [8] is: sc, clorsulon 2 mg/kg s.c., alone or with ivermectin or abamectin 0.2 mg/kg s.c., mean ± SD, n = 6.
The mark [9] stands for this setting: MDCKII oABCG2 cells, ivermectin 10 μM, abamectin […], Ko143 1 μM.

Turning to `Nc1cc(C(Cl)=C(Cl)Cl)c(S(N)(=O)=O)cc1S(N)(=O)=O` [Clorsulon], the Papp A→B at 4 h, 10 μM in data set [1] (n ≥ 3, read-out: AP-BL (Papp A-B)) came out at 2.27 ± 0.46 ×10⁻⁶ cm/s; with ovine ABCG2 [2], 1.13 ± 0.16 ×10⁻⁶ cm/s. Besides, the Papp B→A at 4 h, 10 μM in data set [1] (n ≥ 3, read-out: BL-AP (Papp B-A)) was 2.41 ± 0.46 ×10⁻⁶ cm/s; in the data set on ovine ABCG2 [2], 3.23 ± 0.88 ×10⁻⁶ cm/s. The efflux ratio at 4 h, 10 μM in data set [1] (read-out: Efflux ratio Papp B-A/Papp A-B) is 1.07 ± 0.06; in the data set with ovine ABCG2 [2], 2.92 ± 0.93. For the same molecule, the Efflux transport ratio with murine ABCG2 is 2.20 ± 0.13; in the data set with human ABCG2, 1.63 ± 0.17. The Maximum plasma concentration in data set [3] is 2.5 µg/mL. In [3], the “Time of maximum plasma concentration” value is recorded as 6 h. Also, the “Transport by ovine ABCG2 (substrate, in words)” value in the data set on ovine ABCG2 [4] (MDCKII oABCG2 cells, clorsulon 10 μM) was “efficiently transported”. The AUC(0-inf) was found to be 43300 ± 6400 ng·h/mL in data set [5] (setting [8]) and 20700 ± 4970 ng·h/mL in data set [6] (female, Assaf, sc, sheep milk). Also, the Cmax in [5] (setting [8]) amounted to 2130 ± 280 ng/mL; in [6] (female, Assaf, sc, sheep milk) it was 650 ± 290 ng/mL. The MRT in data set [5] (setting [8]) came to 25 ± 3.97 h; in data set [6] (female, Assaf, sc, sheep milk) it was 40.8 ± 6.15 h. Further, the Tmax in data set [5] (setting [8]) came to 6.67 ± 1.93 h; in data set [6] (female, Assaf, sc, sheep milk) it was 10 ± 1.26 h. Moreover, the half-life in [5] (sc, clorsulon 2 mg/kg s.c., alone or with ivermectin or abamectin 0.2 mg/kg s.c., mean ± SD, n = 6, read-out: T1/2 of clorsulon in plasma (converted)) was 19 ± 2.38 h; in data set [6] (female, Assaf, sc, sheep milk, read-out: T1/2 of clorsulon in milk (converted)) it was 25.9 ± 3.72 h. Also, the concentration at 8 h in [5] (subcutaneous, 8 h after clorsulon 2 mg/kg s.c., alone or with ivermectin 0.2 mg/kg s.c.) stood at 1950 ± 240 ng/mL. Also, the Kp in data set [6] (female, Assaf, milk/plasma, subcutaneous, sheep, read-out: AUC milk/AUC plasma) is 0.49 ± 0.14. The “Dose excreted (%) in milk (72 h)” value in [6] (sheep milk, 72 h) amounted to 0.86 ± 0.28%.

For the molecule Ivermectin, the Inhibition potency value with ovine ABCG2 [7] is listed as 45.9%. Further, the “Inhibition of clorsulon (10 μM) transport mediated by ovine ABCG2 (in words)” value (from here on “Inhibition of clorsulon”) with ovine ABCG2 [4] is listed as “effectively inhibited”.

As to `COc1ccc2c3c([nH]c2c1)[C@H](CC(C)C)N1C(=O)[C@H](CCC(=O)OC(C)(C)C)NC(=O)[C@@H]1C3` [Ko143], the “Inhibition of clorsulon” value with ovine ABCG2 [4] (setting [9]) is “complete inhibition”.

For Abamectin, the “Inhibition of clorsulon” value in the data set on ovine ABCG2 [4] (setting [9]) was “effectively inhibited”.

The record behind these values is article PMC10622746, “Coadministration of ivermectin and abamectin affects milk pharmacokinetics of the antiparasitic clorsulon in Assaf sheep” (Frontiers in Veterinary Science, 2023).
